The values below come from patent publication US8841316B2, “Multicomponent crystalline system of rosuvastatin calcium salt and vanillin” (BASF SE, priority 2011, dated 2014).

This series in a line: Water vapor sorption (water content under humidity). In kind it is physicochemical.

With “bis[(E)-7-[4-(4-fluorophenyl)-6-isopropyl-2-[methyl(methylsulfonyl)amino]pyrimidin-5-yl](3R,5S)-3,5-dihydroxyhept-6-enoic acid] calcium salt [Crystal form A]”, under “after 2 h at 50% r.h.”, the “Water vapor sorption: water content after 2 h at 50% r.h.” value was 6.2%. Besides, the “Water vapor sorption: water content after 5 h at 95% r.h.” value (after 5 h at 95% r.h.) is given as 10.1%.
